According to PMC12430708, “Design, Synthesis, and In Vitro and In Silico Study of New Hybrid 1-(2-(4-Arylthiazol-2-yl)hydrazineylidene)-5,6-dihydro-4H-pyrrolo[3,2,1-ij]quinolin-2-ones as Factor Xa and Factor XIa Inhibitors” (Molecules, 2025):

Key:
Format in all cases: biochemical
factor XIa = factor XIa (Homo sapiens, UniProt P03951); assay: Inhibition of factor XIa, hydrolysis kinetics of chromogenic substrate S2366; conditions: for inhibition at 30 µM / Percent Inhibition at 30 μM ± SEM (n = 3), XIa: 30 μM compound, factor XIa 5 nmol/L, S2366 200 µmol/L, negative values denote percent activation; for inhibition at 30 µM: read-out: Percent Inhibition at 30 μM ± SEM (n = 3), XIa; for IC50: substrate S2366, buffer solution, read-out: IC50, μM ± SEM (n = 3), XIa
Excerpt: (§1) The inhibition of the blood coagulation factors Xa and XIa or plasmin by the synthesized compounds 5a–o was studied by measuring the kinetics of hydrolysis of substrates specific for each of these enzymes in the presence of the compounds. A specific low-molecular-weight chromogenic substrate S2765 (Z-D-Arg-Gly-Arg-pNA·2HCl) was used in the case of factor Xa, substrate S2366 (pyroGlu-Pro-Arg-pNA·HCl) was used for factor XIa, and S2288 (H-D-Ile-Pro-Arg-pNA·2HCl) was used for plasmin (all from Chromogenix, West Chester, PA, USA). A buffer containing 140 mM NaCl, 20 mM HEPES, and 0.1% PEG 6000 (pH 8.0) was placed in the wells of a 96-well plate, followed by the addition of factor Xa or XIa (final concentration 5 nmol·L^−1) or plasmin (final concentration 10 nmol L^−1); the substrate S2765, S2366, or S2288 (final concentration 200 µmol·L^−1); and a solution of the test compound in DMSO (final concentration 30 µmol·L^−1, the DMSO content in the well was no more than 2%). The kinetics of the formation of p-nitroaniline was measured using an Eppendorf PlateReader AF2200 microplate reader (Eppendorf, Hamburg, Germany) by the absorption of light with a wavelength of 405 nm. The initial rate of substrate degradation was determined from the initial slope of the 4-nitroaniline formation curve.
(§2) The absolute value of negative inhibition values denotes percent activation.
(§3) The data obtained were processed using the GraphPad Prism 8.0.1 (244) and OriginPro 8 software.

factor Xa = factor Xa (Homo sapiens, UniProt P00742); assay: Inhibition of factor Xa, hydrolysis kinetics of chromogenic substrate S2765; conditions: for inhibition at 30 µM / Percent Inhibition at 30 μM ± SEM (n = 3), Xa: 30 μM compound, factor Xa 5 nmol/L, S2765 200 µmol/L, negative values denote percent activation; for inhibition at 30 µM: read-out: Percent Inhibition at 30 μM ± SEM (n = 3), Xa; for IC50: substrate S2765, buffer solution, read-out: IC50, μM ± SEM (n = 3), Xa
Excerpt: as §1, §2, §3

plasmin = plasmin (Homo sapiens, UniProt P00747); assay: Inhibition of plasmin, hydrolysis kinetics of chromogenic substrate S2288 (selectivity); conditions: 30 μM compound, plasmin 10 nmol/L, S2288 200 µmol/L; for inhibition at 30 µM: read-out: Percent Inhibition at 30 μM ± SEM (n = 3), Plasmin
Excerpt: as §1, §2, §3

plasmin, sequence (P00747 581-810 limits assumed, species assumed): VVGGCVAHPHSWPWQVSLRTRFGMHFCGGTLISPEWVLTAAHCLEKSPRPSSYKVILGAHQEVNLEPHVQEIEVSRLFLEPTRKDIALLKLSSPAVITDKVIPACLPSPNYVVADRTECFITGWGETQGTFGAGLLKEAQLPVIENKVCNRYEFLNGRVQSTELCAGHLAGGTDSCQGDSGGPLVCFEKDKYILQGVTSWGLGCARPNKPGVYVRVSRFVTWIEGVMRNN
plasmin, sequence (P00747 97-580 partner limits assumed, species assumed): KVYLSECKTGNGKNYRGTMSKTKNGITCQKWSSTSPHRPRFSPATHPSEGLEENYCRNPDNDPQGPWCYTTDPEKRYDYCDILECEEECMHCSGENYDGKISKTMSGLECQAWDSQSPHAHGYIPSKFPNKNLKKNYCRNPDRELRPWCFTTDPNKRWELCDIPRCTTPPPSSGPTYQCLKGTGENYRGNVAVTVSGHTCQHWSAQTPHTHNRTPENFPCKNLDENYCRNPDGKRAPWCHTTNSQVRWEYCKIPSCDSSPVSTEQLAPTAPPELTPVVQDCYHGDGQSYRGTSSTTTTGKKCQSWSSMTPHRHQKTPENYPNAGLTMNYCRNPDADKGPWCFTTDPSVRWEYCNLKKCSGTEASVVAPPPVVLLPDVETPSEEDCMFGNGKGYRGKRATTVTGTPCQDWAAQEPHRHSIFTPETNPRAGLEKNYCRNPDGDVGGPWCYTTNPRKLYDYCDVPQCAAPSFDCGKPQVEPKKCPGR
factor XIa, sequence (P03951 388-625 limits assumed): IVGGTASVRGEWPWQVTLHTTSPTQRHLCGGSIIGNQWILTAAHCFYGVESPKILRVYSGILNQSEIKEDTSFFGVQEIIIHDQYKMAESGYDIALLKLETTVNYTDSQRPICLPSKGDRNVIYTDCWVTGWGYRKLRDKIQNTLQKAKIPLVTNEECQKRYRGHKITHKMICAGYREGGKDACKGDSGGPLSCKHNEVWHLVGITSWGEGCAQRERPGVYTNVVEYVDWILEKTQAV
factor XIa, sequence (P03951 19-387 partner limits assumed): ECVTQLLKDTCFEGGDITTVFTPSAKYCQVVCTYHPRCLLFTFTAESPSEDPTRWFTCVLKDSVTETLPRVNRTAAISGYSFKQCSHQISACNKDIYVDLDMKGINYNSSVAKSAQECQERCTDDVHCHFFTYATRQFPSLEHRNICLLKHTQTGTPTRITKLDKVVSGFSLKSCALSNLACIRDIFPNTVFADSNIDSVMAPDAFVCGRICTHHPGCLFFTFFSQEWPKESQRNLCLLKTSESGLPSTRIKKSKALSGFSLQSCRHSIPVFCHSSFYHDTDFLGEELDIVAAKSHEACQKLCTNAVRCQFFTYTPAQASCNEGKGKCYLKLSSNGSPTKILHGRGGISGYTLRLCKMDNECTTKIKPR
factor Xa, sequence (P00742 235-488 limits assumed): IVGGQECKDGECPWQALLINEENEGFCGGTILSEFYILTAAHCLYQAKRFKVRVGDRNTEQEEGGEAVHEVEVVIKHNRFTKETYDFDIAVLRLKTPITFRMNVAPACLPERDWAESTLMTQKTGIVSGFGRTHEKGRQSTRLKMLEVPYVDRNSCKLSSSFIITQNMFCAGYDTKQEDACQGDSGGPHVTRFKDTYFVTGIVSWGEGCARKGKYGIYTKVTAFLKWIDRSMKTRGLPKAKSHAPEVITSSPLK
factor Xa, sequence (P00742 41-179 partner limits assumed): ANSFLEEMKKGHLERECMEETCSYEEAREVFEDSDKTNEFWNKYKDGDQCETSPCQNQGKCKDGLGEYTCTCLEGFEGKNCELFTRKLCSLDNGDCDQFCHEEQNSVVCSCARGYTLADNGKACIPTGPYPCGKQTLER

Row | inhibition at 30 µM (factor XIa) [%] | inhibition at 30 µM (factor Xa) [%] | Percent Inhibition at 30 μM ± SEM (n = 3), Plasmin (plasmin) [%] | inhibition at 30 µM (plasmin) [%] | Percent Inhibition at 30 μM ± SEM (n = 3), XIa (factor XIa) [%] | IC50 (factor XIa) [µM] | Percent Inhibition at 30 μM ± SEM (n = 3), Xa (factor Xa) [%] | IC50 (factor Xa) [µM] | Compound
1 | 76 ± 3 | 51 ± 18 | – | – | – | – | – | – | CC1(c2ccccc2)CC(C)(C)N2C(=O)/C(=N\Nc3nc(-c4ccc(Cl)cc4)cs3)c3cc(F)cc1c32 (stereo not drawn) [5g, (Z)-1-(2-(4-(4-Chlorophenyl)thiazol-2-yl)hydrazineylidene)-8-fluoro-4,4,6-trimethyl-6-phenyl-5,6-dihydro-4H-pyrrolo[3,2,1-ij]quinolin-2(1H)-one]
2 | 98 to 100 | 98 to 100 | 8 ± 2 | < 10 | 100 | 7.66 ± 0.08 | 99 ± 1 | 5.75 ± 0.02 | CC1(c2ccccc2)CC(C)(C)N2C(=O)/C(=N\Nc3nc(-c4ccc(Cl)cc4)cs3)c3cc(Br)cc1c32 (stereo not drawn) [5h, (Z)-8-Bromo-1-(2-(4-(4-chlorophenyl)thiazol-2-yl)hydrazineylidene)-4,4,6-trimethyl-6-phenyl-5,6-dihydro-4H-pyrrolo[3,2,1-ij]quinolin-2(1H)-one]
3 | -14 ± 10 | -21 ± 9 | – | – | – | – | – | – | COc1ccc(-c2csc(N/N=C3\C(=O)N4c5c3cccc5C(C)(c3ccc(Cl)cc3)CC4(C)C)n2)cc1 (stereo not drawn) [5i, (Z)-6-(4-Chlorophenyl)-1-(2-(4-(4-methoxyphenyl)thiazol-2-yl)hydrazineylidene)-4,4,6-trimethyl-5,6-dihydro-4H-pyrrolo[3,2,1-ij]quinolin-2(1H)-one]
4 | -3 ± 6 | -3 ± 3 | – | – | – | – | – | – | COc1ccc(-c2csc(N/N=C3\C(=O)N4c5c3cc(Cl)cc5C(C)(c3ccc(Cl)cc3)CC4(C)C)n2)cc1 (stereo not drawn) [5j, (Z)-8-Chloro-6-(4-chlorophenyl)-1-(2-(4-(4-methoxyphenyl)thiazol-2-yl)hydrazineylidene)-4,4,6-trimethyl-5,6-dihydro-4H-pyrrolo[3,2,1-ij]quinolin-2(1H)-one]
5 | 37 ± 8 | -12 ± 11 | – | – | – | – | – | – | CC1(c2ccc(Cl)cc2)CC(C)(C)N2C(=O)/C(=N\Nc3nc(-c4ccc(Cl)cc4)cs3)c3cc(F)cc1c32 (stereo not drawn) [5k, (Z)-6-(4-Chlorophenyl)-1-(2-(4-(4-chlorophenyl)thiazol-2-yl)hydrazineylidene)-8-fluoro-4,4,6-trimethyl-5,6-dihydro-4H-pyrrolo[3,2,1-ij]quinolin-2(1H)-one]
6 | -11 ± 7 | -4 ± 3 | – | – | – | – | – | – | CC1(c2ccc(Cl)cc2)CC(C)(C)N2C(=O)/C(=N\Nc3nc(-c4ccc(F)cc4)cs3)c3cc(F)cc1c32 (stereo not drawn) [5l, (Z)-6-(4-Chlorophenyl)-8-fluoro-1-(2-(4-(4-fluorophenyl)thiazol-2-yl)hydrazineylidene)-4,4,6-trimethyl-5,6-dihydro-4H-pyrrolo[3,2,1-ij]quinolin-2(1H)-one]
7 | -14 ± 7 | -17 ± 11 | – | – | – | – | – | – | CC1(c2ccc(Cl)cc2)CC(C)(C)N2C(=O)/C(=N\Nc3nc(-c4cccc(Cl)c4)cs3)c3cc(F)cc1c32 (stereo not drawn) [5m, (Z)-6-(4-Chlorophenyl)-1-(2-(4-(3-chlorophenyl)thiazol-2-yl)hydrazineylidene)-8-fluoro-4,4,6-trimethyl-5,6-dihydro-4H-pyrrolo[3,2,1-ij]quinolin-2(1H)-one]
8 | -11 ± 12 | -4 ± 6 | – | – | – | – | – | – | CC1(c2ccc(Cl)cc2)CC(C)(C)N2C(=O)/C(=N\Nc3nc(-c4ccccc4)cs3)c3cc(Br)cc1c32 (stereo not drawn) [5o, (Z)-8-Bromo-6-(4-chlorophenyl)-4,4,6-trimethyl-1-(2-(4-phenylthiazol-2-yl)hydrazineylidene)-5,6-dihydro-4H-pyrrolo[3,2,1-ij]quinolin-2(1H)-one]

Continued, molecule first:

Row | Compound | inhibition at 30 µM (factor XIa) [%] | inhibition at 30 µM (factor Xa) [%] | Percent Inhibition at 30 μM ± SEM (n = 3), Plasmin (plasmin) [%] | inhibition at 30 µM (plasmin) [%] | Percent Inhibition at 30 μM ± SEM (n = 3), XIa (factor XIa) [%] | IC50 (factor XIa) [µM] | Percent Inhibition at 30 μM ± SEM (n = 3), Xa (factor Xa) [%] | IC50 (factor Xa) [µM]
9 | COc1cc2c3c(c1)C(C)CC(C)(C)N3C(=O)/C2=N\Nc1nc(-c2ccc(Cl)cc2)cs1 (stereo not drawn) [5a, (Z)-1-(2-(4-(4-Chlorophenyl)thiazol-2-yl)hydrazineylidene)-8-methoxy-4,4,6-trimethyl-5,6-dihydro-4H-pyrrolo[3,2,1-ij]quinolin-2(1H)-one] | -13 ± 11 | -30 ± 7 | – | – | – | – | – | –
10 | COc1cc2c3c(c1)C(C)CC(C)(C)N3C(=O)/C2=N\Nc1nc(-c2ccc(F)cc2)cs1 (stereo not drawn) [5b, (Z)-1-(2-(4-(4-Fluorophenyl)thiazol-2-yl)hydrazineylidene)-8-methoxy-4,4,6-trimethyl-5,6-dihydro-4H-pyrrolo[3,2,1-ij]quinolin-2(1H)-one] | -6 ± 10 | -30 ± 10 | – | – | – | – | – | –
11 | COc1cc2c3c(c1)C(C)CC(C)(C)N3C(=O)/C2=N\Nc1nc(-c2ccc(Br)cc2)cs1 (stereo not drawn) [5c, (Z)-1-(2-(4-(4-Bromophenyl)thiazol-2-yl)hydrazineylidene)-8-methoxy-4,4,6-trimethyl-5,6-dihydro-4H-pyrrolo[3,2,1-ij]quinolin-2(1H)-one] | -7 ± 8 | -40 ± 10 | – | – | – | – | – | –
12 | CC1CC(C)(C)N2C(=O)/C(=N\Nc3nc(-c4ccc(F)cc4)cs3)c3cc(Cl)cc1c32 (stereo not drawn) [5d, (Z)-8-Chloro-1-(2-(4-(4-fluorophenyl)thiazol-2-yl)hydrazineylidene)-4,4,6-trimethyl-5,6-dihydro-4H-pyrrolo[3,2,1-ij]quinolin-2(1H)-one] | 98 to 100 | 98 to 100 | 5 ± 1 | < 10 | 99 | 7.7 ± 0.05 | 98 ± 1 | 5.43 ± 0.02
13 | COc1ccc(-c2csc(N/N=C3\C(=O)N4c5c3cc(Cl)cc5C(C)CC4(C)C)n2)cc1 (stereo not drawn) [5e, (Z)-8-Chloro-1-(2-(4-(4-methoxyphenyl)thiazol-2-yl)hydrazineylidene)-4,4,6-trimethyl-5,6-dihydro-4H-pyrrolo[3,2,1-ij]quinolin-2(1H)-one] | -2 ± 11 | -8 ± 10 | – | – | – | – | – | –
14 | COc1cccc(-c2csc(N/N=C3\C(=O)N4c5c3cc(F)cc5C(C)CC4(C)C)n2)c1 (stereo not drawn) [5f, (Z)-8-Fluoro-1-(2-(4-(3-methoxyphenyl)thiazol-2-yl)hydrazineylidene)-4,4,6-trimethyl-5,6-dihydro-4H-pyrrolo[3,2,1-ij]quinolin-2(1H)-one] | -11 ± 9 | -25 ± 9 | – | – | – | – | – | –
15 | COc1cccc(-c2csc(N/N=C3\C(=O)N4c5c3cc(F)cc5C(C)(c3ccc(Cl)cc3)CC4(C)C)n2)c1 (stereo not drawn) [5n, (Z)-6-(4-Chlorophenyl)-8-fluoro-1-(2-(4-(3-methoxyphenyl)thiazol-2-yl)hydrazineylidene)-4,4,6-trimethyl-5,6-dihydro-4H-pyrrolo[3,2,1-ij]quinolin-2(1H)-one] | -19 ± 8 | -2 ± 3 | – | – | – | – | – | –
